According to US6642392B1 (priority 1997, dated 2003):
Where two headings read alike, the source gives them in different places.

Legend:
Assay type in all cases: in vivo
Puccinia recondita = test: Test B: wheat leaf rust, preventive spray on wheat seedlings; conditions: for Test B disease control rating: wheat leaf rust; for Test B disease control rating (100 = 100% disease control, 0 = no disease control): rating relative to controls
Method: (§1) The resulting test suspensions were then used in the following tests. […]
(§2) The test suspension was sprayed to the point of run-off on wheat seedlings. The following day the seedlings were inoculated with a spore suspension of Puccinia recondita (the causal agent of wheat leaf rust) and incubated in a saturated atmosphere at 20° C. for 24 h, and then moved to a growth chamber at 20° C. for 6 days, after which disease ratings were made.
(§3) Results for Tests A-E are given in Table A. In the table, a rating of 100 indicates 100% disease control and a rating of 0 indicates no disease control (relative to the controls). A dash (-) indicates no test results. ND indicates disease control not determined due to phytotoxicity.

Botrytis cinerea = test: Test E: gray mold, preventive spray on cucumber seedlings; conditions: for Test E disease control rating: gray mold on cucumber; for Test E disease control rating (100 = 100% disease control, 0 = no disease control): rating relative to controls
Method: The resulting test suspensions were then used in the following tests. Spraying these 200 ppm test suspensions to the point of run-off on the test plants is the equivalent of a rate of 500 g/ha.
as §2, with “cucumber” for “wheat”, “Botrytis cinerea” for “Puccinia recondita”, “gray mold on many crops)” for “wheat leaf rust)”, “48” for “24”, “and” for “and then”, “5” for “6”
as §3

[1] = system: Eiysiphe graminis f. sp. tritici; test: Test A: wheat powdery mildew, preventive spray on wheat seedlings; conditions: for Test A disease control rating: wheat powdery mildew; for Test A disease control rating (100 = 100% disease control, 0 = no disease control): rating relative to controls
Method: as §1
The test suspension was sprayed to the point of run-off on wheat seedlings. The following day the seedlings were inoculated with a spore dust of Eiysiphe graminis f. sp. tritici, (the causal agent of wheat powdery mildew) and incubated in a growth chamber at 20° C. for 7 days, after which disease ratings were made.
as §3

Phytophthora infestans = conditions: for Test D disease control rating: tomato late blight; for Test D disease control rating (100 = 100% disease control, 0 = no disease control): rating relative to controls
Pyricularia oryzae = conditions: for Test C disease control rating: rice blast; for Test C disease control rating (100 = 100% disease control, 0 = no disease control): rating relative to controls
[2] = wheat seedlings sprayed to run-off, inoculated the following day, unmarked compounds (standard test rate)
[3] = cucumber seedlings sprayed to run-off, inoculated the following day, unmarked compounds (standard test rate)
[4] = tomato seedlings sprayed to run-off, inoculated the following day, unmarked compounds (standard test rate)
[5] = rice seedlings sprayed to run-off, inoculated the following day, unmarked compounds (standard test rate)
[6] = tested at 40 ppm, wheat seedlings
[7] = 100 = 100% disease control, 0 = no control, unmarked entries (standard test concentration)
[8] = 100 = 100% disease control, 0 = no control relative to controls, unmarked entries (standard test concentration)

Compound: CCC1(C(=O)NC(C)COc2cccc(Br)c2)C(C)C1(Cl)Cl (mixture of isomers) [85b]
- Test B disease control rating (Puccinia recondita; tested at 40 ppm): 0%
- Test E disease control rating (Botrytis cinerea; tested at 40 ppm): 0%
- Test A disease control rating ([1]; tested at 40 ppm): 0%
- Test D disease control rating (Phytophthora infestans; tested at 40 ppm): 0%
- Test C disease control rating (Pyricularia oryzae; tested at 40 ppm): 53%

Compound: CCC1(C(=O)NC(C)COc2ccccc2Br)C(C)C1(Cl)Cl (mixture of isomers) [84b]
- Test B disease control rating (Puccinia recondita; tested at 40 ppm): 28%
- Test E disease control rating (Botrytis cinerea; tested at 40 ppm): 0%
- Test A disease control rating ([1]; tested at 40 ppm): 57%
- Test D disease control rating (Phytophthora infestans; tested at 40 ppm): 75%
- Test C disease control rating (Pyricularia oryzae; tested at 40 ppm): 73%

Compound: CCC(C#N)C(=O)NC(C)C(Oc1cc(F)ccc1C#N)c1ccccc1 (mixture of isomers) [compound 286]
- Test B disease control rating (100 = 100% disease control, 0 = no disease control) (Puccinia recondita; [2]): 0%
- Test E disease control rating (100 = 100% disease control, 0 = no disease control) (Botrytis cinerea; [3]): 0%
- Test A disease control rating (100 = 100% disease control, 0 = no disease control) [1, 2]: 76%
- Test D disease control rating (100 = 100% disease control, 0 = no disease control) (Phytophthora infestans; [4]): 0%
- Test C disease control rating (100 = 100% disease control, 0 = no disease control) (Pyricularia oryzae; [5]): 99%

Compound: CCC1(C(=O)NC(C)COc2cc(F)cc(F)c2Cl)C(C)C1(Cl)Cl (centres unmarked) [compound 318]
- Test B disease control rating (100 = 100% disease control, 0 = no disease control) (Puccinia recondita; [6]): 0%
- Test E disease control rating (100 = 100% disease control, 0 = no disease control) (Botrytis cinerea; tested at 40 ppm, cucumber seedlings): 0%
- Test A disease control rating (100 = 100% disease control, 0 = no disease control) [1, 6]: 90%
- Test D disease control rating (100 = 100% disease control, 0 = no disease control) (Phytophthora infestans; tested at 40 ppm, tomato seedlings): 0%
- Test C disease control rating (100 = 100% disease control, 0 = no disease control) (Pyricularia oryzae; tested at 40 ppm, rice seedlings): 53%

Compound: C[C@H](COc1cc(Cl)ccc1Cl)NC(=O)C(C#N)C(C)(C)C (single isomer, unassigned) [33b]
- Test B disease control rating (Puccinia recondita; [7]): 67%
- Test E disease control rating (Botrytis cinerea; [7]): 0%
- Test A disease control rating [1, 8]: 0%
- Test D disease control rating (Phytophthora infestans; [7]): 80%
- Test C disease control rating (Pyricularia oryzae; [7]): 100%

Compound: CC(COc1ccc(F)cc1)NC(=O)C(C#N)C(C)(C)C (single isomer, unassigned) [4b]
- Test B disease control rating (Puccinia recondita; [7]): 0%
- Test E disease control rating (Botrytis cinerea; [7]): 82%
- Test A disease control rating [1, 8]: 86%
- Test D disease control rating (Phytophthora infestans; [7]): 89%
- Test C disease control rating (Pyricularia oryzae; [7]): 99%

Compound: CCC1(C(=O)NCC=Cc2cccc(Br)c2)C(C)C1(Cl)Cl (centres unmarked) [compound 160]
- Test B disease control rating (Puccinia recondita; tested at 40 ppm): 86%
- Test E disease control rating (Botrytis cinerea; tested at 40 ppm): 0%
- Test A disease control rating ([1]; tested at 40 ppm): 57%
- Test D disease control rating (Phytophthora infestans; tested at 40 ppm): 85%
- Test C disease control rating (Pyricularia oryzae; tested at 40 ppm): 52%

Compound: CC(COc1cc(F)c(F)cc1C#N)NC(=O)C(C#N)C(C)C(C)(C)C (mixture of isomers) [compound 278]
- Test B disease control rating (100 = 100% disease control, 0 = no disease control) (Puccinia recondita; [2]): 67%
- Test E disease control rating (100 = 100% disease control, 0 = no disease control) (Botrytis cinerea; [3]): 94%
- Test A disease control rating (100 = 100% disease control, 0 = no disease control) [1, 2]: 56%
- Test D disease control rating (100 = 100% disease control, 0 = no disease control) (Phytophthora infestans; [4]): 0%
- Test C disease control rating (100 = 100% disease control, 0 = no disease control) (Pyricularia oryzae; [5]): 32%

Compound: CCC1(C(=O)NC(C)COc2cccc(C(F)(F)F)c2C#N)C(C)C1(Cl)Cl (mixture of isomers) [compound 133]
- Test B disease control rating (Puccinia recondita; [7]): 0%
- Test E disease control rating (Botrytis cinerea; [7]): 0%
- Test A disease control rating [1, 8]: 0%
- Test D disease control rating (Phytophthora infestans; [7]): 0%
- Test C disease control rating (Pyricularia oryzae; [7]): 0%

Compound: CC(C)C(C#N)C(=O)NC(C)C(Oc1ccccc1C#N)c1ccccc1 (mixture of isomers) [compound 290]
- Test B disease control rating (100 = 100% disease control, 0 = no disease control) (Puccinia recondita; [2]): 0%
- Test E disease control rating (100 = 100% disease control, 0 = no disease control) (Botrytis cinerea; [3]): 0%
- Test A disease control rating (100 = 100% disease control, 0 = no disease control) [1, 2]: 59%
- Test D disease control rating (100 = 100% disease control, 0 = no disease control) (Phytophthora infestans; [4]): 0%
- Test C disease control rating (100 = 100% disease control, 0 = no disease control) (Pyricularia oryzae; [5]): 90%

Compound: CC(COc1cccc(Cl)c1C#N)NC(=O)C(C#N)C(C)(C)C (mixture of isomers) [compound 42]
- Test B disease control rating (Puccinia recondita; [7]): 0%
- Test E disease control rating (Botrytis cinerea; [7]): 0%
- Test A disease control rating [1, 8]: 0%
- Test D disease control rating (Phytophthora infestans; [7]): 2%
- Test C disease control rating (Pyricularia oryzae; [7]): 53%

Compound: CC(COc1ccccc1)NC(=O)C(C#N)C(C)(C)C (single isomer, unassigned) [1c]
- Test B disease control rating (Puccinia recondita; [7]): 85%
- Test E disease control rating (Botrytis cinerea; [7]): 0%
- Test A disease control rating [1, 8]: 60%
- Test D disease control rating (Phytophthora infestans; [7]): 16%
- Test C disease control rating (Pyricularia oryzae; [7]): 73%

Compound: CC(C)(C)C(C#N)C(=O)NC/C=C/c1cccc(Cl)c1 (racemic) [compound 180]
- Test B disease control rating (Puccinia recondita; [7]): 0%
- Test E disease control rating (Botrytis cinerea; [7]): 0%
- Test A disease control rating [1, 8]: 61%
- Test D disease control rating (Phytophthora infestans; [7]): 76%
- Test C disease control rating (Pyricularia oryzae; [7]): 74%
